Experimental data: the supplement of paper PMC3974653
Where a name gives a salt, the structure may show the parent alone.

Tested on: MTT (mouse pheochromocytoma)
Test: IC50 of cell viability (ATP content)
Conditions: (24 or 48 h)
Outline: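 After overnight culture at 37°C, 5% CO2 in white 1536-well plates, MTT mouse pheochromocytoma cells were given 23 nl of library compound in DMSO by pintool across 8 concentrations, spanning final 0.5 nM to 46 µM. Following 24 or 48 hrs, CellTiter-Glo luminescence was read after 15 minutes and normalised against positive-control (100%) and DMSO (0%) wells. A four-parameter logistic model provided the IC50.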

SMILES | IC50 of cell viability [µM]
CC(C)(C)c1nnc(N[S+](=O)([O-])c2ccccc2)s1 [GLYBUZOLE] | > 46
OCC(O)CO [GLYCERIN] | > 46
CCCCCCCCCCCC(=O)OCC(O)CO (stereo not given) [GLYCEROL MONOLAURATE] | > 46
CCCCCCCCCCCCCCCCCC(=O)OCC(O)CO (stereo not given) [GLYCERYL MONOSTEARATE] | > 46
O=C(NN1CCCC1)N[S+](=O)([O-])c1ccc(Cl)cc1 [GLYCLOPYRAMIDE] | > 46
CC1(C(=O)O)CCC2(C)CCC3(C)C(=CC(=O)[C@@H]4C5(C)CC[C@H](O[C@H]6O[C@H](C(=O)O)C(O)C(O)[C@H]6O[C@@H]6O[C@H](C(=O)O)C(O)C(O)C6O)C(C)(C)[C@@H]5CCC43C)[C@@H]2C1 (stereo not given in full) [GLYCYRRHIZIC ACID, MONOSODIUM SALT] | > 46
Cc1ccc(S(=O)(=O)NC(=O)NC2CCCCCCC2)cc1 [GLYOCTAMIDUM] | > 46
COc1ccc([S+](=O)([O-])Nc2nnc(CC(C)C)s2)cc1 [GLYSOBUZOLUM] | > 46
CC(C)CC(NC(=O)CNC(=O)C(Cc1ccc(O)cc1)NC(=O)C(CO)NC(=O)C(Cc1c[nH]c2ccccc12)NC(=O)C(Cc1c[nH]cn1)NC(=O)C1CCC(=O)N1)C(=O)NC(CCCNC(=N)N)C(=O)N1CCCC1C(=O)NCC(N)=O (stereo not given) [GONADORELIN] | > 46
CC(C)CC(NC(=O)C(COC(C)(C)C)NC(=O)C(Cc1ccc(O)cc1)NC(=O)C(CO)NC(=O)C(Cc1c[nH]c2ccccc12)NC(=O)C(Cc1cnc[nH]1)NC(=O)C1CCC(=O)N1)C(=O)NC(CCCN=C(N)N)C(=O)N1CCCC1C(=O)NNC(N)=O (stereo not given) [GOSERELIN ACETATE] | > 46
CC(C)C[C@@H](NC(=O)[C@@H](COC(C)(C)C)NC(=O)[C@H](Cc1ccc(O)cc1)NC(=O)[C@@H](CO)NC(=O)[C@@H](Cc1c[nH]c2ccccc12)NC(=O)[C@@H](Cc1c[nH]cn1)NC(=O)[C@@H]1CCC(=O)N1)C(=O)N[C@H](CCCNC(=N)N)C(=O)N1CCC[C@H]1C(=O)NNC(N)=O [GOSERELIN ACETATE] | > 46
Cc1c(F)c(N2CCNC(C)C2)cc2c1c(=O)c(C(=O)O)cn2C1CC1 (stereo not given) [GREPAFLOXACIN HYDROCHLORIDE] | > 46
N=C(N)N/N=C/c1c(Cl)cccc1Cl [GUANABENZ] | > 46
N=C(N)NC(=O)Cc1c(Cl)cccc1Cl [GUANFACINE] | > 46
N=C(N)N.O=C(O)O [GUANIDINE CARBONATE] | > 46
NCC1(CC(=O)O)CCCCC1 [Gabapentin] | > 46
CCOC(=O)c1ccc(OC(=O)CCCCCNC(=N)N)cc1.C[S+](=O)([O-])O [Gabexate mesilate] | > 46
OCC1OC(O)C(O)C(O)C1O (stereo not given) [Galactose] | > 46
O=C(O)c1cc(O)c(O)c(O)c1 [Gallic acid] | > 46
CCCCC/C=C\C/C=C\C/C=C\CCCCC(=O)O [Gamolenic acid] | > 46
N\C1=N\C2=C(N=C[N]2COC(CO)CO)C(=O)N1 [Ganciclovir] | > 46
C[C@H]1NCc2cc(-c3ccc4c(=O)c(C(=O)O)cn(C5CC5)c4c3OC(F)F)ccc21 [Garenoxacin] | > 46
COc1cc2ncnc(Nc3ccc(F)c(Cl)c3)c2cc1OCCCN1CCOCC1 [Gefitinib] | > 46
Cc1ccc(C)c(OCCCC(C)(C)C(=O)O)c1 [Gemfibrozil] | > 46

SMILES | IC50 of cell viability [µM]
CN[C@@H](C)[C@H]1CC[C@@H](N)[C@H](O[C@@H]2[C@@H](O)[C@H](O[C@@H]3OC[C@@](C)(O)[C@@H](NC)[C@H]3O)[C@H](N)C[C@@H]2N)O1.CN[C@H]1[C@@H](O)[C@H](O[C@H]2[C@H](O)[C@@H](O[C@@H]3O[C@@H](CN)CC[C@H]3N)[C@@H](N)C[C@H]2N)OC[C@@]1(C)O.CN[C@H]1[C@@H](O)[C@H](O[C@H]2[C@H](O)[C@@H](O[C@@H]3O[C@@H]([C@H](C)N)CC[C@H]3N)[C@@H](N)C[C@H]2N)OC[C@@]1(C)O.O=[S+]([O-])(O)O [Gentamicine sulfate] | > 46
CC(C)=CCC/C(C)=C/CC/C(C)=C/CCC(=O)OC/C=C(\C)CCC=C(C)C [Geranyl farnesylacetate] | > 46
O=C(OC[C@@H](O)CO)c1ccccc1Nc1ccnc2cc(Cl)ccc12 [Glafenine hydrochloride] | > 46
Cc1ccc([S+](=O)([O-])NC(=O)NN2C[C@H]3CCC[C@@H]3C2)cc1 [Gliclazide] | > 46
CC\C1=C(/C)CN(C(=O)NCCC2=CC=C(C=C2)[S+]([O-])(=O)NC(=O)NC3CCC(C)CC3)C1=O (stereo not given) [Glimepiride] | > 46
COc1ccc2c(c1)C(=O)N(CCc1ccc([S+](=O)([O-])NC(=O)NC3CCCCC3)cc1)C(=O)C2(C)C [Gliquidone] | > 46
COc1ccc([S+](=O)([O-])Nc2nnc(CC(C)C)s2)cc1 [Glisobuzol] | > 46
Cc1cc(C(=O)NCCc2ccc([S+](=O)([O-])NC(=O)NN3CCCCCC3)cc2)no1 [Glisoxepide] | > 46
O=C1O[C@H]2[C@@H](OC(O)[C@@H]2O)[C@H]1O (stereo not given in full) [Glucuronolactone] | > 46
O=CCCCC=O [Glutaraldehyde (Glutaric dialdehyde)] | > 46
CC[C@@]1(c2ccc(N)cc2)CCC(=O)NC1=O [Glutethimide, para-amino] | > 46
CCC1(c2ccccc2)CCC(=O)NC1=O (stereo not given) [Glutethimide] | > 46
O=P([O-])([O-])OC(CO)CO [Glycerol phosphate calcium salt] | > 46
NCC(=O)O [Glycine] | > 46
CCCCCCCCCCCCCCCCCC(=O)OCCO [Glycol stearate] | > 46
C[N+]1(C)CCC(OC(=O)C(O)(c2ccccc2)C2CCCC2)C1 (stereo not given) [Glycopyrrolate bromide] | > 46
Cc1ccc([S+](=O)([O-])NC(=O)NC2CCCCC2)cc1 [Glycyclamide] | > 46
O=CC=O [Glyoxal] | > 46
COc1cc2c(c(OC)c1OC)-c1c(cc3c(c1OC)OCO3)CC(C)C(C)(O)C2 (stereo not given) [Gomisin A] | > 46
COc1cc2c(c(OC)c1OC)-c1c(cc3c(c1OC)OCO3)C[C@@H](C)[C@](C)(O)C2 [Gomisin A] | > 46
Cc1cc2c(C(C)C)c(O)c(O)c(C=O)c2c(O)c1-c1c(C)cc2c(C(C)C)c(O)c(O)c(C=O)c2c1O [Gossypol] | > 46
CN1[C@@H]2CCC[C@@H]1CC(NC(=O)c1nn(C)c3ccccc13)C2 (stereo not given in full) [Granisetron Hydrochloride] | > 46
COC1=CC(=C2C(=O)[C@]\3(OC2=C1Cl)[C@H](C)CC(=O)\C=C3OC)OC [Griseofulvin] | > 46
CCN(CC)CCOc1ccccc1OC [Guaiactamine] | > 46

SMILES | IC50 of cell viability [µM]
COc1ccccc1OC[C@H](O)CO [Guaifenesin] | > 46
N=C(N)NC[C@@H]1COC2(CCCCC2)O1 [Guanadrel sulfate] | > 46
N=C(N)NCCN1CCCCCCC1 [Guanethidine sulfate] | > 46
N=C(N)NCC1COc2ccccc2O1 (stereo not given) [Guanoxano] | > 46
N=C(N)NCCCCCCC(=O)NC(O)C(=O)NCCCCNCCCN (stereo not given) [Gusperimus trihydrochloride] | > 46
O=C(O)c1ccc([S+](=O)([O-])N(Cl)Cl)cc1 [HALAZONE] | > 46
CCC(=O)O[C@]1(C(=O)CCl)[C@@H](C)CC2C3C[C@H](F)C4=CC(=O)C=CC4(C)[C@@]3(F)C(O)CC21C (stereo not given in full) [HALOBETASOL PROPIONATE] | > 46
O=C(CC1NCCC[C@H]1O)Cn1cnc2cc(Br)c(Cl)cc2c1=O (stereo not given in full) [HALOFUGINONE LACTATE] | > 46
O=C(CCCN1CCC(O)(c2ccc(Cl)cc2)CC1)c1ccc(F)cc1 [HALOPERIDOL] | > 46
CC(N)CCCC(C)(C)O.Cl (stereo not given) [HEPTAMINOL HYDROCHLORIDE] | > 46
CC1(C)SC2C(N3C(=O)C(c4ccccc4)NC3(C)C)C(=O)N2C1C(=O)[O-].[K+] (stereo not given) [HETACILLIN POTASSIUM] | > 46
C[N+](C)(C)CCCCCC[N+](C)(C)C [HEXAMETHONIUM] | > 46
CC(C)CCCC(C)CCCC(C)CCCCC(C)CCCC(C)CCCC(C)C (stereo not given) [HEXAMETHYLTETRACOSANE] | > 46
CN1C(=O)NC(=O)C(C)(C2=CCCCC2)C1=O (stereo not given) [HEXOBARBITAL] | > 46
Oc1ccc(C(O)CNCCCCCCNCC(O)c2ccc(O)c(O)c2)cc1O (stereo not given) [HEXOPRENALINE SULFATE] | > 46
CCCCCCOC(=O)c1cccnc1 [HEXYL NICOTINATE] | > 46
NCCc1c[nH]cn1 [HISTAMINE] | > 46
CN(C)CCc1ccc(O)cc1 [HORDENINE] | > 46
CC(=O)N[C@@H]1C(O[C@H]2O[C@H](C(=O)O)C(O)[C@H](O)[C@H]2O)[C@H](O)[C@@H](CO)O[C@H]1O[C@@H]1C(C(=O)O)O[C@@H](O[C@H]2[C@H](O)[C@@H](CO)OC(O)[C@@H]2NC(C)=O)[C@H](O)[C@H]1O (stereo not given in full) [HYALURONATE SODIUM] | > 46
N[S+](=O)([O-])c1cc2c(cc1Cl)NCN[S+]2(=O)[O-] [HYDROCHLOROTHIAZIDE] | > 46
COc1ccc2c3c1O[C@H]1C(=O)CC[C@H]4[C@@H](C2)N(C)CC[C@]314 [HYDROCODONE BITARTRATE] | > 46
CCCC(=O)O[C@@]1(CCC2[C@@H]3CCC/4=C/C(=O)CC[C@]4(C)C3C(O)C[C@@]12C)C(=O)CO (stereo not given in full) [HYDROCORTISONE BUTYRATE] | > 46
